Experimental data reported in ChEMBL document CHEMBL1152093, “The effect of propargylic substitution on the activation and aromatization of enediynes” (Bioorg Med Chem Lett, 1994).

Legend:
HCT-116 = assay: In vitro cytotoxicity against 116 human colon tumor cell line (HCT116); assay type: functional, cell-based
Mus musculus [1] = assay: Compound was tested in vivo in mice against Madison 109 lung carcinoma cell line (M109) in a pretreated group over a control group at 64 mg/kg/inj; assay type: functional
Mus musculus [2] = assay: Compound was tested in vivo in mice against Madison 109 lung carcinoma cell line (M109) in a pretreated group over a control group at 32 mg/kg/inj; assay type: functional
Mus musculus [3] = assay: Compound was tested in vivo in mice against Madison 109 lung carcinoma cell line (M109) in a pretreated group over a control group at 128 mg/kg/inj; assay type: functional
Mus musculus [4] = assay: Compound was tested in vivo in mice against Madison 109 lung carcinoma cell line (M109) in a pretreated group over a control group at 16 mg/kg/inj; assay type: functional

Structure (SMILES) | IC50 (HCT-116) [nM] | T/C (Mus musculus [1]) [%] | T/C (Mus musculus [2]) [%] | T/C (Mus musculus [3]) [%] | T/C (Mus musculus [4]) [%]
CC(C)(C)[Si](C)(C)O[C@@]12C#C/C=C\C#C[C@@H](OC(=O)COc3ccccc3)C(=CCC1)C2=O | 190 | 143 |  |  | 
CC(C)(C)[Si](C)(C)O[C@@]12C#C/C=C\C#C[C@@H](F)C(=CCC1)C2=O | 24 |  | 112 |  | 
CC(C)(C)[Si](C)(C)O[C@@]12C#C/C=C\C#C[C@H](O)C(=CCC1)C2=O | > 2000 |  |  | 115 | 
CC(C)(C)[Si](C)(C)O[C@@]12C#C/C=C\C#C[C@@H](O)C(=CCC1)C2=O | 100 |  |  |  | 144
CC(C)(C)[Si](C)(C)O[C@@]12C#C/C=C\C#CCC(=CCC1)C2=O | > 2000 |  |  |  | 
